Measurements taken from patent publication US11628171B2, “Method for treating brain or nerve injury” (CHILDREN'S MEDICAL CENTER CORPORATION, priority 2019, dated 2023).

Test system: retinal ganglion cells
Experiment: Optic nerve injury model ("optic crush" model), retinal ganglion cell survival
Type: in vivo
Settings: male mice, intraocular injection following optic nerve injury, 14 days after injury, compared with PBS control; difference statistically significant (FIG. 1)
Protocol: A PDE1 inhibitory compound was tested in an optic nerve injury model (i.e., the “optic crush” model). The studies described below were carried out using the selective PDE1 inhibitor IC200041, which has the following structure:
In this model, optic nerve surgeries were performed on male mice 8 weeks of age (average body weight, 20-26 g) under general anesthesia, as described previously (Yin Y, et al., Oncomodulin links inflammation to optic nerve regeneration. Proc Natl Acad Sci USA. 2009; 106:19587-19592). Following nerve injury, 3 μl of fluid was removed from the eye and a solution containing the PDE1 inhibitory compound was injected intraocularly.
A total of 4 mouse retinas were treated with the PDE1 inhibitor, and phosphate buffered saline (PBS) was administered to a total of 10 mouse retinas as a control. Mice were typically euthanized with an overdose of anesthesia 14 days after optic nerve injury and were perfused with saline and 4% paraformaldehyde (PFA). These mice were 10 weeks old when killed. Optic nerves and eyes were dissected and postfixed in PFA. […] Axons were counted manually in at least 8 longitudinal sections per case at pre-specified distances from the injury site, and these numbers were converted into the number of regenerating axons at various distances.

SMILES: CN1C(=O)c2c(nn(Cc3ccc(-c4ccccn4)cc3)c2Nc2ccccc2)N2C1=N[C@@H]1CCC[C@@H]12 [IC200041]
- survival of retinal ganglion cells: highly effective in increasing the survival of retinal ganglion cells
